According to patent US20250353864A1, “INDAZOLE CONTAINING MACROCYCLES AND THEIR USE” (BLOSSOMHILL THERAPEUTICS, INC., priority 2022, published 2025):

Columns and labels:
Assay type in all cases: biochemical
[1] = biological target: EGFR WT (Homo sapiens (Human), UniProt P00533); test: HotSpot radiometric kinase assay (Reaction Biology), EGFR WT; conditions: 10 μM ATP
In short: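 IC50 values come from curve fits of ^33P incorporation captured on P81 filters after acid washing. Kinase reactions ran 120 min at room temperature with 10 μM ATP, added about 20 min after compound. Buffer was Hepes pH 7.5 containing Mg, DTT and 1% DMSO.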

[2] = biological target: EGFR (D770_N771insNPG) (Homo sapiens (Human), UniProt P00533, INS770NPG); test: HotSpot radiometric kinase assay, EGFR (D770_N771insNPG); conditions: 10 μM ATP, read-out: EGFR (Δ770_N771insNPG) IC50
Chain of EGFR (D770_N771insNPG) (P00533 other isoform, or with tags, fused parts or gaps del 1-668/ins NPG behind 770 limits assumed): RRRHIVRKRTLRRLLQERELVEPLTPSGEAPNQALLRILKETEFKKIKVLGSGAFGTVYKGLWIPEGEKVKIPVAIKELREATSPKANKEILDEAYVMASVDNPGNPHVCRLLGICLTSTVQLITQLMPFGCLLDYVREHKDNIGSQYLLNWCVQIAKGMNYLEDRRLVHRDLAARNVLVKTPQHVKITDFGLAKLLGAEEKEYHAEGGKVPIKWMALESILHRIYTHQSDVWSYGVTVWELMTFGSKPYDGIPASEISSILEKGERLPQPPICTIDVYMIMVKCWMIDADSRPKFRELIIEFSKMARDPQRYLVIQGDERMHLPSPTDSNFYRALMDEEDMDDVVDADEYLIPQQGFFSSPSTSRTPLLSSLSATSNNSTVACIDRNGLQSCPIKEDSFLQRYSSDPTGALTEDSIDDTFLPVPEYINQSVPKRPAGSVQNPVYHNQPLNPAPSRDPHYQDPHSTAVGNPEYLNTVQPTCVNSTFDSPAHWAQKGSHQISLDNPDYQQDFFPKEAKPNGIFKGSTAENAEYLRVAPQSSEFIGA
In short: (§1)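 Enzyme and substrate pairs were exposed to inhibitor for roughly 20 min before radiolabelled ATP (10 μM final) was introduced; the reaction proceeded 120 min at ambient temperature in pH 7.5 buffer with 1% DMSO, and phosphorylated product was captured on P81 filters for IC50 determination.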

[3] = biological target: EGFR Δ746-750 mutant (Homo sapiens (Human), UniProt P00533, DEL746-750); test: HotSpot radiometric kinase assay, EGFR Δ746-750 mutant; conditions: 10 μM ATP
Chain of EGFR Δ746-750 mutant (P00533 other isoform, or with tags, fused parts or gaps del 1-668/del 746-750 limits assumed): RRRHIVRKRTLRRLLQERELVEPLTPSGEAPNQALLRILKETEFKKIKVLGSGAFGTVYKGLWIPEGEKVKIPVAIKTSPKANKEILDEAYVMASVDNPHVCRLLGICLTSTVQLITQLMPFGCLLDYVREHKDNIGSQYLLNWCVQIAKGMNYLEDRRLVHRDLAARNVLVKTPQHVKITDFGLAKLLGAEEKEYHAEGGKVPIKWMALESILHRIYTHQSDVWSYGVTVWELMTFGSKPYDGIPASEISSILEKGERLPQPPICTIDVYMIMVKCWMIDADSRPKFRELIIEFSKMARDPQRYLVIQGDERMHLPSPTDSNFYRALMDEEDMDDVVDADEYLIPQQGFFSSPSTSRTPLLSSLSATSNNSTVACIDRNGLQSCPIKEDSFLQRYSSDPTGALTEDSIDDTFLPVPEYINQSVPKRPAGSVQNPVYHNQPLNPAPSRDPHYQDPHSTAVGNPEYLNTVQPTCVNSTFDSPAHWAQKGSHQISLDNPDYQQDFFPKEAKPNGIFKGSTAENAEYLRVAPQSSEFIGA
In short: as §1

[4] = biological target: EGFR Δ746-750/C797S mutant (Homo sapiens (Human), UniProt P00533, C797S/DEL746-750); test: HotSpot radiometric kinase assay, EGFR Δ746-750/C797S mutant; conditions: 10 μM ATP
Chain of EGFR Δ746-750/C797S mutant (P00533 other isoform, or with tags, fused parts or gaps C797S/del 1-668/del 746-750 limits assumed): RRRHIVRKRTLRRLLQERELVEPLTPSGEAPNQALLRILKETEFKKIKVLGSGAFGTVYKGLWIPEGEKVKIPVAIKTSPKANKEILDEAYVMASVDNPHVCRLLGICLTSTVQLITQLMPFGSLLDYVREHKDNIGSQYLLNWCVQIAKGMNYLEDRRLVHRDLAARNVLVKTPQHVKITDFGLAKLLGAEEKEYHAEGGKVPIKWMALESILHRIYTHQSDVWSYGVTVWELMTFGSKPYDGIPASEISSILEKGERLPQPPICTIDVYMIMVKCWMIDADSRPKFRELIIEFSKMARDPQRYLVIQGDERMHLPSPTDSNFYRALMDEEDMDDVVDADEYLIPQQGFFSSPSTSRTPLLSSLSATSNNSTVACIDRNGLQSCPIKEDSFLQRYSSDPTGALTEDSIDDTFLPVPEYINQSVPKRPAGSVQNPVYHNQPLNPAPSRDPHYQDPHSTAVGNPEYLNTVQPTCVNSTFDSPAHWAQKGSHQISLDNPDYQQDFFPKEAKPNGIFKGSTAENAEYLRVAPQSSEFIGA
In short: as §1

[5] = biological target: EGFR L858R mutant (Homo sapiens (Human), UniProt P00533, L858R); test: HotSpot radiometric kinase assay, EGFR L858R mutant; conditions: 10 μM ATP
Chain of EGFR L858R mutant (P00533 25-1210 L858R): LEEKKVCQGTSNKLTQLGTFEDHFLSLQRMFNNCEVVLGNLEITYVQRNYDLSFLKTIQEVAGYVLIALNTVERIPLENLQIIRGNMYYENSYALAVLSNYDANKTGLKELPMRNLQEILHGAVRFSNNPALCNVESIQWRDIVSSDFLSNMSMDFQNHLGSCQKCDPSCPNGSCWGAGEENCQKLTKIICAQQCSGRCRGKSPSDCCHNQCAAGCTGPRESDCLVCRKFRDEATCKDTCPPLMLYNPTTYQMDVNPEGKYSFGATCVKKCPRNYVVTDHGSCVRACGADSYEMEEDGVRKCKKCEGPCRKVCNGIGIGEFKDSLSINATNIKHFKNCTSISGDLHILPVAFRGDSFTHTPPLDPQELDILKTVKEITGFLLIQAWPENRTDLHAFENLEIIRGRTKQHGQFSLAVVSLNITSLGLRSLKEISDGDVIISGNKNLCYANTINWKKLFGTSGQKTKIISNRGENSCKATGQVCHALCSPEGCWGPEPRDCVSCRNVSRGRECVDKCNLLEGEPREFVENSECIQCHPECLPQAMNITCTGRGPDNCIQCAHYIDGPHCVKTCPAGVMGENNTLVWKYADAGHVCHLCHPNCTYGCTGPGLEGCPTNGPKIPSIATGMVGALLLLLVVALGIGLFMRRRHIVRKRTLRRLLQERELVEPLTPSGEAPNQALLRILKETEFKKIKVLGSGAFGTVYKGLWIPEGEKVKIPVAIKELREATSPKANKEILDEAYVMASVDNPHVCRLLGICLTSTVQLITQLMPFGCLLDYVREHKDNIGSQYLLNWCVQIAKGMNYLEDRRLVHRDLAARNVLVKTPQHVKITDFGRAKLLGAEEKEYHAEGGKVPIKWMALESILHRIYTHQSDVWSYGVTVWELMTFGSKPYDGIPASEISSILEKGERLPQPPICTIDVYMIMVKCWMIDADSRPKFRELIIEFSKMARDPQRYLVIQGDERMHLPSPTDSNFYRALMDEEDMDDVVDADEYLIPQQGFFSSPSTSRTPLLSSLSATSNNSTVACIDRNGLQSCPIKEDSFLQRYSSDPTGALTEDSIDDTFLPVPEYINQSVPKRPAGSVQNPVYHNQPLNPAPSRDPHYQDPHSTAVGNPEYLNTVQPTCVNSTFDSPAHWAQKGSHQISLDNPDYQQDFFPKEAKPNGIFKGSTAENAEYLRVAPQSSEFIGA
In short: as §1

[6] = biological target: EGFR L858R/T790M mutant (Homo sapiens (Human), UniProt P00533, L858R/T790M); test: HotSpot radiometric kinase assay, EGFR L858R/T790M mutant; conditions: 10 μM ATP
In short: as §1

[7] = biological target: EGFR L858R/T790M/C797S mutant (Homo sapiens (Human), UniProt P00533, C797S/L858R/T790M); test: HotSpot radiometric kinase assay, EGFR L858R/T790M/C797S mutant; conditions: 10 μM ATP
In short: as §1

[8] = biological target: CLK1 (Homo sapiens (Human), UniProt P49759); test: Inhibition of CLK1 kinase activity evaluated at Nanosyn (ADP-Glo); conditions: ADP-Glo luminescence
Chain of CLK1 (P49759 whole entry): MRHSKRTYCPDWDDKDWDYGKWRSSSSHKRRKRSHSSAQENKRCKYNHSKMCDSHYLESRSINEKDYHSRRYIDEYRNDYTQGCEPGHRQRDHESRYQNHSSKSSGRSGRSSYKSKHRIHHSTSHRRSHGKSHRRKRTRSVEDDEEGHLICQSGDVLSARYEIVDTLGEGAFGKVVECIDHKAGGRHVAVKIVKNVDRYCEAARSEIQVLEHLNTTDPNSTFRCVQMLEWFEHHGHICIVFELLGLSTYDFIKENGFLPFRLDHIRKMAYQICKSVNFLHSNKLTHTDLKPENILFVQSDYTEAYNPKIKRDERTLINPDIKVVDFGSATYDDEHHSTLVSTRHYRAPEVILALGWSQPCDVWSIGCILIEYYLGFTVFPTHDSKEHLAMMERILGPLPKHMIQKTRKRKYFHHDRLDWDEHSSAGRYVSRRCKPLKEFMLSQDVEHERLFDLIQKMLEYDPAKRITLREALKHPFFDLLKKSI
In short: (§2)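 Percent inhibition derived from luminescent ADP detection (ADP-Glo), normalised to DMSO-only and enzyme-free wells. Reactions ran in HEPES pH 7.5 buffer with Mg2+, Triton X-100 and BSA, 1% DMSO, ATP-initiated, for an assay-specific time.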

[9] = biological target: CLK2 (Homo sapiens (Human), UniProt P49760); test: Inhibition of CLK2 kinase activity evaluated at Nanosyn (ADP-Glo); conditions: ADP-Glo luminescence
Chain of CLK2 (P49760 whole entry): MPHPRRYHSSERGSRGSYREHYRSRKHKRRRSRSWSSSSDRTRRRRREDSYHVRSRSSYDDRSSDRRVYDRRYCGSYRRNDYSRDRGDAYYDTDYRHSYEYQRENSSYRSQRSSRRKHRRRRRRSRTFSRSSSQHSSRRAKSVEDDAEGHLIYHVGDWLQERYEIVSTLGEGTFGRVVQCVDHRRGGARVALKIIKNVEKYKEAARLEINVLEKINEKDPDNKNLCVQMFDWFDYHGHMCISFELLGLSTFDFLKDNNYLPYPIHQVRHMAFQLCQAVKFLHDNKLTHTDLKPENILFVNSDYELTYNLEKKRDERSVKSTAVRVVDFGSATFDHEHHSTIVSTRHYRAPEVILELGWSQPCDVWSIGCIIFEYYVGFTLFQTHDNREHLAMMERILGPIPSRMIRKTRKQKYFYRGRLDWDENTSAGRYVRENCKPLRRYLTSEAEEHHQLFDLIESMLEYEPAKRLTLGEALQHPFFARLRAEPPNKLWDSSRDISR
In short: as §2

[10] = biological target: CLK3 (Homo sapiens (Human), UniProt P49761); test: Inhibition of CLK3 kinase activity evaluated at Nanosyn (ADP-Glo); conditions: ADP-Glo luminescence
Chain of CLK3 (P49761 whole entry): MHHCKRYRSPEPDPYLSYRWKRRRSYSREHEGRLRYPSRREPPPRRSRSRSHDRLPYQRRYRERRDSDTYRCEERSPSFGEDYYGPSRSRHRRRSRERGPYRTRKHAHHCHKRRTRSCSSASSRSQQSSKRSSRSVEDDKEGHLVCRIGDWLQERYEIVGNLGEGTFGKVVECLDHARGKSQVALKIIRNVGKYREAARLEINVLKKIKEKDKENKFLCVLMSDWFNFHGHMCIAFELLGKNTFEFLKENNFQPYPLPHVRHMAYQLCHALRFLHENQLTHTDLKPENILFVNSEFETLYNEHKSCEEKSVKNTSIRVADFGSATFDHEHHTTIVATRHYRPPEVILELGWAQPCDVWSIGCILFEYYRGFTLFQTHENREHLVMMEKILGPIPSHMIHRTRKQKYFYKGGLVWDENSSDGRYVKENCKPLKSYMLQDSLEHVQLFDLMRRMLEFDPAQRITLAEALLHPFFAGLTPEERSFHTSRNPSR
In short: as §2

[11] = biological target: CLK4 (Homo sapiens (Human), UniProt Q9HAZ1); test: Inhibition of CLK4 kinase activity evaluated at Nanosyn (ADP-Glo); conditions: ADP-Glo luminescence
Chain of CLK4 (Q9HAZ1 whole entry): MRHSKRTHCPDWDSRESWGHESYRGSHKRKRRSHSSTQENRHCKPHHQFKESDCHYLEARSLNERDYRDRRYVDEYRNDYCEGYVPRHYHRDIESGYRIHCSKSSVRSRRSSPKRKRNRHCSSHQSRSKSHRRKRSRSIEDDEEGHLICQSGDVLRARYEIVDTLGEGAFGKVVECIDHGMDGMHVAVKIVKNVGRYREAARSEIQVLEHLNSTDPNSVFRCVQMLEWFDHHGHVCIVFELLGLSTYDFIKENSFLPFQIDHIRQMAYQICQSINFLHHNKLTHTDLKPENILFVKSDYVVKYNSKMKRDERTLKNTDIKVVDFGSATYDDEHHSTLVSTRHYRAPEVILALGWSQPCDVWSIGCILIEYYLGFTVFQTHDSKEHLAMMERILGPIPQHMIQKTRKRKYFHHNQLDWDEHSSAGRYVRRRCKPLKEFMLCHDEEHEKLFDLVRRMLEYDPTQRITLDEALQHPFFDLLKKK
In short: as §2

Row | Structure (SMILES) | IC50 [1] [nM] | IC50 [2] [nM] | IC50 [3] [nM] | IC50 [4] [nM] | IC50 [5] [nM] | IC50 [6] [nM] | IC50 [7] [nM] | IC50 [8] [nM] | IC50 [9] [nM] | IC50 [10] [nM] | IC50 [11] [nM]
1 | Cc1nn(C[C@H](C)O)c2c1/C=C/c1n[nH]c3ccc(cc13)-c1cnn(C)c1O[C@@H](C)CN(C)C2 [Example 123, (2S)-1-[(10S,17E)-8,10,12,16-tetramethyl-2,8,10,11,12,13-hexahydro-14H-3,5-ethenotripyrazolo[3,4f:3′,4′-j:4″,3″-n][1,4]oxazacyclopentadecin-14-yl]propan-2-ol] | 11.4 | 10.1 | 1.3 | 0.8 | 1.5 | 0.33 | 0.75 | 0.17 | 0.1 | 171 | 0.45
2 | CCOc1nn(CCO)c2c1/C=C/c1n[nH]c3cc(F)c(cc13)-c1cnn(C)c1O[C@@H]1CCCN(C2)C1 [Example 191, 2-[(10R,19E)-18-ethoxy-22-fluoro-8-methyl-2,10,11,12,13,15-hexahydro-3,5-etheno-10,14-methanotripyrazolo[3,4-h:3′,4′-l:4″,3″-p][1,6]oxazacycloheptadecin-16(8H)-yl]ethan-1-o] | 19.8 | 102 | 9.04 | 4.19 | 5.61 | 4.23 | 2.63 | 2.42 | 4.37 | 43.4 | 2.41
3 | CCOc1nn([C@@H](C)CO)c2c1/C=C/c1n[nH]c3cc(F)c(cc13)-c1cnn(C)c1OC[C@H](C)N(C(C)C)C2 [Example 228, (2S)-2-[(11S,17E)-16-ethoxy-19-fluoro-8,11-dimethyl-12-(propan-2-yl)-2,8,10,11,12,13-hexahydro-14H-3,5-ethenotripyrazolo[3,4-f:3′,4′-j:4″,3″- n][1,4]oxazacyclopentadecin-14-yl]propan-1-ol] | 52.7 | 481 | 12.2 | 44.4 | 25.2 | 25.9 | 10.6 | 21.9 | 8.6 | 1000 | 34
4 | CCOc1nccc2c1/C=C/c1n[nH]c3ccc(cc13)-c1cnn(C)c1O[C@@H](C)CN(C)C2 [Example 240, (10S,18E)-17-ethoxy-8,10,12-trimethyl-2,8,10,11,12,13-hexahydro-3,5-ethenodipyrazolo[3,4-j:4′,3′-n]pyrido[4,3-f][1,4]oxazacyclopentadecine] | > 1000 | > 1000 | 826 | 653 | 775 | 5.92 | 10.5 | 1.12 | 12.5 | 1000 | 1.52
5 | CCN1Cc2c(c(OC(C)C)nn2C[C@H](C)O)/C=C/c2n[nH]c3ccc(cc23)-c2cnn(C)c2O[C@H](C)C1 [Example 227, (2S)-1-{(10R,17E)-12-ethyl-8,10-dimethyl-16-[(propan-2-yl)oxy]-2,8,10,11,12,13-hexahydro-14H-3,5-ethenotripyrazolo[3,4-f:3′,4′-j:4″,3″- n][1,4]oxazacyclopentadecin-14-yl}propan-2-ol] | 251 | 167 | 9.86 | 6.82 | 60.1 | 0.84 | 0.36 | 4.9 | 2.59 | 471 | 4.63
6 | CCOc1nn(CCO)c2c1/C=C/c1n[nH]c3ccc(cc13)-c1cnn(C)c1O[C@@H](CC)CN(C)C2 [Example 260, 2-[(10S,17E)-16-ethoxy-10-ethyl-8,12-dimethyl-2,8,10,11,12,13-hexahydro-14H-3,5-ethenotripyrazolo[3,4-f:3′,4′-j:4″,3″-n][1,4]oxazacyclopentadecin-14-yl]ethan-1-ol] | 13.6 | 25.3 | 3.5 | 3.74 | 4.55 | 0.9 | 3.19 | 4.9 | 5.21 | 361 | 3.15
7 | CCOc1noc2c1/C=C/c1n[nH]c3ccc(cc13)-c1cnn(C)c1O[C@@H](C)CN(C)C2 [Example 183, (10S,17E)-16-ethoxy-8,10,12-trimethyl-2,8,10,11,12,13-hexahydro-3,5-etheno[1,2]oxazolo[5,4-f]dipyrazolo[3,4-j:4′,3′-n][1,4]oxazacyclopentadecine] | 195 | 534 | 53.8 | 17.7 | 61.5 | 0.65 | 1.05 | 0.82 | 0.24 | 155 | 1.83
8 | CC(C)Oc1nn(CCO)c2c1/C=C/c1n[nH]c3ccc(cc13)-c1cnn(C)c1O[C@@H](CO)CN(C)C2 [Example 258, 2-{(10R,17E)-10-(hydroxymethyl)-8,12-dimethyl-16-[(propan-2-yl)oxy]-2,8,10,11,12,13-hexahydro-14H-3,5-ethenotripyrazolo[3,4-f:3′,4′-j:4″,3″-n][1,4]oxazacyclopentadecin-14-yl}ethan-1-ol] | 5.72 | 15.8 | 1.22 | 1.26 | 1.56 | 0.48 | 2.17 | 0.5 | 0.23 | 17.2 | 1.04
9 | Cc1nn(C)c2c1/C=C/c1n[nH]c3ccc(cc13)-c1cnn(C)c1OCCN1CC[C@@H](O2)C1=O [Example 109, (10R,15E)-3,12,14-trimethyl-5,6,9,10,12,18-hexahydro-3H,8H-19,21-etheno-7,10-methanotripyrazolo[3,4-i:3′,4′-m:4″,3″-q][1,8,4]dioxazacyclooctadecin-24-one] | 856 | 298 | 38 | 152 | 165 | 15.9 | 47.1 | 0.46 | 0.09 | 2 | 0.85
10 | Cc1nn(C)c2c1/C=C/c1n[nH]c3ccc(cc13)-c1cnn(C)c1O[C@@H]1CCN(C2)C1 [Example 167, (10R,18E)-8,15,17-trimethyl-2,8,11,12,14,15-hexahydro-10H-3,5-etheno-10,13-methanotripyrazolo[3,4-g:3′,4′-k:4″,3″- 0][1,5]oxazacyclohexadecine] | 123 | 47.1 | 23.8 | 13.6 | 35.7 | 3.42 | 8.89 | 0.38 | 0.23 | 108 | 0.55
11 | CCOc1nn(C)c2c1/C=C/c1n[nH]c3cc(F)c(cc13)-c1cnn(C)c1O[C@@H](C)CN(CC)C2 [Example 206, (10S,17E)-16-ethoxy-12-ethyl-19-fluoro-8,10,14-trimethyl-2,10,11,12,13,14-hexahydro-8H-3,5-ethenotripyrazolo[3,4-f:3′,4′-j:4″,3″-n][1,4]oxazacyclopentadecine] | 3.33 | 43.5 | 0.76 | 0.74 | 1.69 | 0.52 | 1.46 | 1.67 | 1.72 | 477 | 3.69
12 | C[C@H]1CN(C)Cc2onc(C3CC3)c2/C=C/c2n[nH]c3ccc(cc23)-c2cnn(C)c2O1 [Example 173, (10S,17E)-16-cyclopropyl-8,10,12-trimethyl-2,8,10,11,12,13-hexahydro-3,5-etheno[1,2]oxazolo[5,4-f]dipyrazolo[3,4-j:4′,3′-n][1,4]oxazacyclopentadecine] | > 1000 | > 1000 | 533 | 127 | 513 | 45.5 | 27.4 | 0.7 | 0.89 | 1000 | 1.26
13 | COCc1nn(CCO)c2c1/C=C/c1n[nH]c3ccc(cc13)-c1cnn(C)c1O[C@@H](C)CN(C)C2 [Example 261, 2-[(10S,17E)-16-(methoxymethyl)-8,10,12-trimethyl-2,8,10,11,12,13-hexahydro-14H-3,5-ethenotripyrazolo[3,4-f:3′,4′-j:4″,3″-n][1,4]oxazacyclopentadecin-14-yl]ethan-1-ol] | 93.7 | 230 | 23.5 | 5.93 | 21.6 | 1.92 | 5.1 | 0.2 | 0.33 | 209 | 0.44
